Converted amounts (≈) assume the structure as drawn. Where two headings read alike, the source gives them in different places.
What was measured:
Assay type in all cases: cell-based
Strep. D = experiment: Agar Dilution MIC (Table I); conditions: for MIC: read-out: Agar Dilution MIC
Text: A typical and preferred compound provided by this invention is 7-(3-benzothienyl)glycylamido-3-methyl-3-cephem-4-carboxylic acid, the compound illustrated in Example 9. The antibacterial activity of this compound has been determined in standard in vitro agar dilution assays against a variety of gram positive and gram negative microorganism. The following Tables present typical minimum inhibitory concentrations (MIC's) in μg/ml for several compounds of the invention when evaluated against the indicated microorganisms. MIC's for several known compounds are also presented for comparison.
Agar Dilution MIC (μg/ml)

H. influ. = experiment: Agar Dilution MIC (Table I); conditions: read-out: Agar Dilution MIC
E. coli = experiment: Agar Dilution MIC (Table I); conditions: Escherichia coli
Staph. aureus = experiment: Agar Dilution MIC (Table I); conditions: Staphylococcus aureus
Strep. A = experiment: Agar Dilution MIC (Table I); conditions: read-out: Agar Dilution MIC
Klebsiella = experiment: Agar Dilution MIC (Table I); conditions: for MIC: Klebsiella, read-out: Agar Dilution MIC
Bacteroides fragilis = experiment: Expanded anaerobic Spectrum MIC (Table IV)
Haemophilus influenzae = experiment: Expanded H. influenzae Spectrum MIC (Table IV)
Staph. epi = experiment: Agar Dilution MIC (Table I); conditions: read-out: Agar Dilution MIC
Strep. PN = experiment: Agar Dilution MIC (Table I); conditions: strain PARK
[1] = strain X1.1, read-out: Agar Dilution MIC
[2] = geometric mean over strains, read-out: MIC Geometric mean
[3] = mean over strains, read-out: MIC mean
[4] = geometric mean over strains, read-out: MIC Geometric Mean
[5] = read-out: Agar Dilution MIC, strain S13E
[6] = strain V41, read-out: Agar Dilution MIC
[7] = strain X400, read-out: Agar Dilution MIC

CC1(C)S[C@@H]2[C@H](NC(=O)[C@H](N)c3ccccc3)C(=O)N2[C@H]1C(=O)O [Ampicillin, reference compound]
MIC (Strep. D; strain X66): 4 µg/mL (≈ 11.4 µM)
MIC (H. influ.; strain 76): 16 µg/mL (≈ 45.8 µM)
MIC (H. influ.; strain C.L.): 0.5 µg/mL (≈ 1.43 µM)
MIC (E. coli; strain EC14): 4 µg/mL (≈ 11.4 µM)
MIC (E. coli; strain N10): 8 µg/mL (≈ 22.9 µM)

CC1=C(C(=O)O)N2C(=O)[C@@H](NC(=O)[C@H](N)c3ccccc3)[C@H]2SC1 [Cephalexin]
MIC (Staph. aureus; read-out: Agar Dilution MIC): 128 µg/mL (≈ 368 µM)
MIC (Staph. aureus; [1]): 4 µg/mL (≈ 11.5 µM)
MIC (Strep. A): 0.5 µg/mL (≈ 1.44 µM)
MIC (Strep. D): 128 µg/mL (≈ 368 µM)
Agar Dilution MIC (Strep. D; strain 2041): 128 µg/mL
MIC (E. coli; strain EC14): 4 µg/mL (≈ 11.5 µM)
MIC (Klebsiella): 128 µg/mL (≈ 368 µM)
MIC (Bacteroides fragilis; [2]): 34 µg/mL (≈ 97.9 µM)
MIC (Bacteroides fragilis; [3]): 40 µg/mL (≈ 115 µM)
MIC (Bacteroides fragilis; strain 180-821, read-out: MIC): 16 µg/mL (≈ 46.1 µM)
MIC (Bacteroides fragilis; strain 10668, read-out: MIC): > 64 µg/mL
MIC (Bacteroides fragilis; strain 10683, read-out: MIC): > 64 µg/mL
MIC (Bacteroides fragilis; strain 10695, read-out: MIC): 64 µg/mL (≈ 184 µM)
MIC (Bacteroides fragilis; strain 10732, read-out: MIC): 32 µg/mL (≈ 92.1 µM)
MIC (Bacteroides fragilis; strain 10750, read-out: MIC): 64 µg/mL (≈ 184 µM)
MIC (Bacteroides fragilis; strain 10774, read-out: MIC): > 64 µg/mL
MIC (Bacteroides fragilis; strain 10817, read-out: MIC): 16 µg/mL (≈ 46.1 µM)
MIC (Bacteroides fragilis; strain 10837, read-out: MIC): 16 µg/mL (≈ 46.1 µM)
MIC (Bacteroides fragilis; strain 107266, read-out: MIC): 32 µg/mL (≈ 92.1 µM)
MIC (Bacteroides fragilis; strain 107268, read-out: MIC): 16 µg/mL (≈ 46.1 µM)
MIC (Bacteroides fragilis; strain 108133, read-out: MIC): 32 µg/mL (≈ 92.1 µM)
MIC (Haemophilus influenzae; [4]): 12 µg/mL (≈ 34.5 µM)
MIC (Haemophilus influenzae; [3]): 22 µg/mL (≈ 63.3 µM)
MIC (Haemophilus influenzae; strain 105): 4 µg/mL (≈ 11.5 µM)
MIC (Haemophilus influenzae; strain 112, read-out: MIC): 16 µg/mL (≈ 46.1 µM)

CC1=C(C(=O)O)N2C(=O)C(NC(=O)C(N)c3cc4ccccc4s3)C2SC1 (centres unmarked) [Compound B, 7-(2-benzothienyl)glycylamido-3-methyl-3-cephem-4-carboxylic acid]
MIC (Bacteroides fragilis; [2]): 15 µg/mL (≈ 37.2 µM)
MIC (Bacteroides fragilis; [3]): 27 µg/mL (≈ 66.9 µM)
MIC (Bacteroides fragilis; strain 180-821, read-out: MIC): 2 µg/mL (≈ 4.96 µM)
MIC (Bacteroides fragilis; strain 10668, read-out: MIC): 64 µg/mL (≈ 159 µM)
MIC (Bacteroides fragilis; strain 10695, read-out: MIC): 16 µg/mL (≈ 39.7 µM)
MIC (Bacteroides fragilis; strain 10732, read-out: MIC): 4 µg/mL (≈ 9.91 µM)
MIC (Bacteroides fragilis; strain 10750, read-out: MIC): 64 µg/mL (≈ 159 µM)
MIC (Bacteroides fragilis; strain 10774, read-out: MIC): 64 µg/mL (≈ 159 µM)
MIC (Bacteroides fragilis; strain 10817, read-out: MIC): 4 µg/mL (≈ 9.91 µM)
MIC (Bacteroides fragilis; strain 10837, read-out: MIC): 16 µg/mL (≈ 39.7 µM)
MIC (Bacteroides fragilis; strain 107266, read-out: MIC): 4 µg/mL (≈ 9.91 µM)
MIC (Bacteroides fragilis; strain 107268, read-out: MIC): 16 µg/mL (≈ 39.7 µM)
MIC (Bacteroides fragilis; strain 108133, read-out: MIC): 16 µg/mL (≈ 39.7 µM)
MIC (Haemophilus influenzae; [4]): 2 µg/mL (≈ 4.96 µM)
MIC (Haemophilus influenzae; [3]): 3 µg/mL (≈ 7.44 µM)
MIC (Haemophilus influenzae; strain 102): 16 µg/mL (≈ 39.7 µM)
MIC (Haemophilus influenzae; strain 104, read-out: MIC): 2 µg/mL (≈ 4.96 µM)
MIC (Haemophilus influenzae; strain 107): 4 µg/mL (≈ 9.91 µM)
MIC (Haemophilus influenzae; strain 109, read-out: MIC): 1 µg/mL (≈ 2.48 µM)
MIC (Haemophilus influenzae; strain 110): 4 µg/mL (≈ 9.91 µM)
MIC (Haemophilus influenzae; strain 112, read-out: MIC): 8 µg/mL (≈ 19.8 µM)
MIC (Haemophilus influenzae; strain 113, read-out: MIC): 2 µg/mL (≈ 4.96 µM)
MIC (Haemophilus influenzae; strain 114, read-out: MIC): 2 µg/mL (≈ 4.96 µM)

CC1=C(C(=O)O)N2C(=O)C(NC(=O)[C@@H](N)c3csc4c(F)cccc34)C2SC1 (stereo partly drawn) [Ex. 21, L-7-(7-Fluoro-3-benzothienyl)glycylamido-3-methyl-3-cephem-4-carboxylic acid]
MIC (Staph. aureus; [5]): 128 µg/mL (≈ 304 µM)
MIC (Staph. aureus; [6]): 128 µg/mL (≈ 304 µM)
MIC (Staph. aureus; [1]): 32 µg/mL (≈ 75.9 µM)
MIC (Staph. aureus; [7]): 128 µg/mL (≈ 304 µM)
MIC (Staph. epi): 128 µg/mL (≈ 304 µM)
MIC (Staph. epi; strain 222): 64 µg/mL (≈ 152 µM)
MIC (Strep. A; strain C203): 8 µg/mL (≈ 19 µM)
MIC (Strep. PN): 16 µg/mL (≈ 38 µM)
MIC (Strep. D): 128 µg/mL (≈ 304 µM)
Agar Dilution MIC (Strep. D; strain 2041): 128 µg/mL
MIC (H. influ.; strain 76): 8 µg/mL (≈ 19 µM)
MIC (H. influ.; strain C.L.): 64 µg/mL (≈ 152 µM)
MIC (E. coli; strain EC14): 128 µg/mL (≈ 304 µM)
MIC (E. coli; strain N10): 128 µg/mL (≈ 304 µM)
MIC (E. coli; strain TEM): 128 µg/mL (≈ 304 µM)
MIC (Klebsiella): 128 µg/mL (≈ 304 µM)
MIC (Klebsiella; strain X26): 64 µg/mL (≈ 152 µM)
Agar Dilution MIC (Klebsiella; strain X68): 128 µg/mL

C=CC1=C(C(=O)O)N2C(=O)C(NC(=O)[C@H](N)c3csc4ccccc34)C2SC1 (stereo partly drawn) [Ex. 35, D-7-(3-Benzothienylglycylamido)-3-vinyl-3-cephem-4-carboxylic acid]
MIC (Staph. aureus; [6]): 16 µg/mL (≈ 38.5 µM)
MIC (Staph. aureus; [1]): 2 µg/mL (≈ 4.81 µM)
MIC (Staph. aureus; [7]): 32 µg/mL (≈ 77 µM)
MIC (Staph. epi; strain 222): 2 µg/mL (≈ 4.81 µM)
MIC (Staph. epi; strain EPI1): 8 µg/mL (≈ 19.3 µM)
MIC (Strep. D; strain 2041): 32 µg/mL (≈ 77 µM)
MIC (Strep. D; strain X66): 64 µg/mL (≈ 154 µM)
MIC (H. influ.; strain 76): 1 µg/mL (≈ 2.41 µM)
MIC (H. influ.; strain C.L.): 8 µg/mL (≈ 19.3 µM)
MIC (E. coli; strain EC14): 128 µg/mL (≈ 308 µM)
MIC (E. coli; strain N10): 128 µg/mL (≈ 308 µM)
MIC (E. coli; strain TEM): 128 µg/mL (≈ 308 µM)
MIC (Klebsiella; strain KAE): 128 µg/mL (≈ 308 µM)
MIC (Klebsiella; strain X26): 8 µg/mL (≈ 19.3 µM)
MIC (Klebsiella; strain X68): 128 µg/mL (≈ 308 µM)

CC1=C(C(=O)O)N2C(=O)C(NC(=O)[C@@H](N)c3csc4cccc(Cl)c34)C2SC1 (stereo partly drawn) [Ex. 36A, L-7-(4-chloro-3-benzothienyl)glycylamido-3-methyl-3-cephem-4-carboxylic acid]
MIC (Staph. aureus; [5]): 128 µg/mL (≈ 292 µM)
MIC (Staph. aureus; [6]): 128 µg/mL (≈ 292 µM)
MIC (Staph. aureus; [1]): 64 µg/mL (≈ 146 µM)
MIC (Staph. aureus; [7]): 128 µg/mL (≈ 292 µM)
MIC (Staph. epi): 128 µg/mL (≈ 292 µM)
MIC (Staph. epi; strain 222): 64 µg/mL (≈ 146 µM)
MIC (Strep. A; strain C203): 16 µg/mL (≈ 36.5 µM)
MIC (Strep. PN): 8 µg/mL (≈ 18.3 µM)
MIC (Strep. D): 128 µg/mL (≈ 292 µM)
Agar Dilution MIC (Strep. D; strain 2041): 128 µg/mL
MIC (H. influ.): 128 µg/mL (≈ 292 µM)
MIC (H. influ.; strain 76): 4 µg/mL (≈ 9.13 µM)
MIC (E. coli; strain EC14): 128 µg/mL (≈ 292 µM)
MIC (E. coli; strain N10): 128 µg/mL (≈ 292 µM)
MIC (E. coli; strain TEM): 128 µg/mL (≈ 292 µM)
MIC (Klebsiella): 128 µg/mL (≈ 292 µM)
Agar Dilution MIC (Klebsiella; strain KAE): 128 µg/mL
Agar Dilution MIC (Klebsiella; strain X68): 128 µg/mL

CC1=C(C(=O)O)N2C(=O)C(NC(=O)[C@H](N)c3csc4cccc(Cl)c34)C2SC1 (stereo partly drawn) [Ex. 36B, D-7-(4-chloro-3-benzothienyl)glycylamido-3-methyl-3-cephem-4-carboxylic acid]
MIC (Staph. aureus; [5]): 128 µg/mL (≈ 292 µM)
MIC (Staph. aureus; [6]): 128 µg/mL (≈ 292 µM)
MIC (Staph. aureus; [1]): 16 µg/mL (≈ 36.5 µM)
MIC (Staph. aureus; [7]): 128 µg/mL (≈ 292 µM)
MIC (Staph. epi): 128 µg/mL (≈ 292 µM)
MIC (Staph. epi; strain 222): 8 µg/mL (≈ 18.3 µM)
MIC (Strep. A; strain C203): 8 µg/mL (≈ 18.3 µM)
MIC (Strep. PN): 8 µg/mL (≈ 18.3 µM)
MIC (Strep. D): 128 µg/mL (≈ 292 µM)
Agar Dilution MIC (Strep. D; strain 2041): 128 µg/mL
MIC (H. influ.): 128 µg/mL (≈ 292 µM)
MIC (H. influ.; strain 76): 16 µg/mL (≈ 36.5 µM)
MIC (E. coli; strain EC14): 128 µg/mL (≈ 292 µM)
MIC (E. coli; strain N10): 128 µg/mL (≈ 292 µM)
MIC (E. coli; strain TEM): 128 µg/mL (≈ 292 µM)
MIC (Klebsiella): 128 µg/mL (≈ 292 µM)
Agar Dilution MIC (Klebsiella; strain KAE): 128 µg/mL
Agar Dilution MIC (Klebsiella; strain X68): 128 µg/mL

CC1=C(C(=O)O)N2C(=O)C(NC(=O)[C@H](N)c3csc4ccc(Cl)cc34)C2SC1 (stereo partly drawn) [Ex. 38B, D-7-(5-chloro-3-benzothienyl)glycylamido-3-methyl-3-cephem-4-carboxylic acid]
MIC (Staph. aureus; [6]): 4 µg/mL (≈ 9.13 µM)
MIC (Staph. aureus; [1]): 1 µg/mL (≈ 2.28 µM)
MIC (Staph. aureus; [7]): 8 µg/mL (≈ 18.3 µM)
MIC (Staph. epi; strain 222): 2 µg/mL (≈ 4.57 µM)
MIC (Staph. epi; strain EPI1): 4 µg/mL (≈ 9.13 µM)
MIC (Strep. A; strain C203): 0.25 µg/mL (≈ 0.571 µM)
MIC (Strep. PN): 0.25 µg/mL (≈ 0.571 µM)
MIC (Strep. D; strain 2041): 32 µg/mL (≈ 73.1 µM)
MIC (Strep. D; strain X66): 64 µg/mL (≈ 146 µM)
MIC (E. coli; strain EC14): 64 µg/mL (≈ 146 µM)
MIC (E. coli; strain N10): 64 µg/mL (≈ 146 µM)
MIC (E. coli; strain TEM): 64 µg/mL (≈ 146 µM)
MIC (Klebsiella; strain KAE): 64 µg/mL (≈ 146 µM)
MIC (Klebsiella; strain X26): 2 µg/mL (≈ 4.57 µM)
MIC (Klebsiella; strain X68): 64 µg/mL (≈ 146 µM)

Reference: patent publication US4492693A, “Benzothienylglycyl cephalosporin derivatives” (priority 1983, dated 1985)
